# Experimental data published in US20250099382A1, “Colloidal suspension of nutraceutical ingredients to treat traumatic brain injury” (priority 2023, published 2025).
# What was measured:
# rat [1] = details: PubChem.gov, cited from earlier work; for LD50: rat, route not stated
# rat [2] = experiment: LD50 reported by PubChem.gov, rat; details: for human equivalent of LD50: LD50 divided by 6.2 (rat), times 65 kilograms
# TBI = details: 100 mg/kg, rats; cited from earlier work
# human lymphocytes = human lymphocytes in culture; cited from earlier work
# mice [3] = details: PubChem.gov, cited from earlier work
# mice [4] = experiment: LD50 reported by PubChem.gov, human conversion with the mouse factor 12.3; details: LD50 divided by 12.3, times 65 kilograms
# Text: Much of the research for toxicity and efficacy studies is preclinical, which necessitates a conversion of preclinical data to human equivalent data for interpretation of implications of preclinical data to clinical studies. […] For conversion of preclinical data from mice to human, divide the mg/kg dosage by 12.3. One would then multiply the result by an approximated average weight in kilograms for human clinical subjects to establish a preliminary clinical dosage. For example, if the preclinical dosage indicating drug efficacy were 100 mg/kg, this dosage would be divided by 12.3 to get 8.13 mg/kg, which would then be multiplied by an average weight in kilograms designated for the clinical study. For an average clinical subject weight of 65 kilograms, the original 100 mg/kg preclinical dosage would translate to 528 mg, which would be the preliminary dosage for clinical studies. For conversion of preclinical data from rat to human, the animal dosage would be divided by 6.2, then multiplied by the average subject weight in kilograms for the clinical study.
# To convert this preclinical data to human equivalent data, 2.2 grams divided by 12.3 is 179 mg, times 65 kilograms for a human subject weighing 65 kg is approximately 11.6 grams.
# For human equivalency dosage, 100 mg/kg divided by 12.3 is 8.13 mg/kg, times 65 for a 65-kilogram clinical subject is 528 mg/kg. […]
# platelets = details: cited from earlier work
# [5] = system: weight drop contusion TBI; details: 100 mg/kg to mice after weight drop contusion TBI; cited from earlier work
# rats = details: up to 5 grams per kilogram for 60 days; cited from earlier work
# mice [6] = details: up to 5 grams per kilogram for 60 days; cited from earlier work
molecule,measurement,setting,value
"Nc1ncnc2c1ncn2[C@@H]1O[C@H](COP(=O)([O-])OP(=O)([O-])OP(=O)([O-])[O-])[C@@H](O)[C@H]1O.[Mg+2].[Mg+2] [ATP, Adenosine triphosphate magnesium]",LD50,rat [1],greater than 2 grams per kilogram
same,human equivalent of LD50,rat [2],> 21 grams
"Oc1ccc(C=Cc2cc(O)cc(O)c2)cc1 [resveratrol, 3,5,4′-Trihydroxystilbene]",secondary injury from TBI,TBI,significantly attenuated secondary injury from TBI
same,genetic damage induced by permethrin,human lymphocytes,diminishes genetic damage induced by permethrin
"N[C@@H](CCC(=O)N[C@@H](CS)C(=O)NCC(=O)O)C(=O)O [GSH, Glutathione]","LD50, intravenous",mice [3]; intravenous,2.2 grams per kilogram of animal weight
same,human equivalent of intravenous LD50,mice [4],approximately 11.6 grams
"COc1cc(/C=C/C(=O)CC(=O)/C=C/c2ccc(O)c(OC)c2)ccc1O [curcumin, Curcumin]",production of thromboxane A2 by platelets,platelets,reduced the production of thromboxane A2 by platelets
same,LD50,mice [3]; route not stated,greater than 2 grams per kilogram of animal weight
same,human equivalent of LD50,mice [4],approximately 10.6 grams
same,recovery after TBI,[5],Major improvements in recovery were noted
Fulvic acid,toxicity or genotoxicity,rats,No toxicity or genotoxicity was found
same,toxicity or genotoxicity,mice [6],No toxicity or genotoxicity was found
NCCS(=O)(=O)O [taurine],LD50,rat [1],greater than 7 grams per kilogram
same,human equivalent of LD50,rat [2],74 grams
"CC(=O)O[C@H](CC(=O)[O-])C[N+](C)(C)C [acetyl L-carnitine, Acetyl L-carnitine]","LD50, intravenous","rat [1]; intravenous, rat species","1,265 mg/kg"
same,human equivalent dosage of intravenous LD50,"rat [2]; LD50 divided by 6.2, times 65 for a 65-kilogram human patient",13.2 grams
